# Laboratory results taken from ChEMBL document CHEMBL4433234, “3H-Imidazo[4,5-b]pyridine-6-carboxylic acid derivatives as rexinoids with reduced teratogenicity” (Bioorg Med Chem Lett, 2019).
# Columns and labels:
# [1] = Toxicity in fertilized zebra fish embryos assessed as hatching rate at 100 nM incubated for 120 hrs post fertilization by microscopic method relative to untreated control (reference value: 100%); design: species or system Danio rerio; conditions: zebrafish, 0.1 µM
# [2] = Toxicity in fertilized zebra fish embryos assessed as survival rate at 100 nM incubated for 120 hrs post fertilization by microscopic method relative to untreated control (reference value: 100%); design: species or system Danio rerio; conditions: zebrafish
# [3] = Toxicity in fertilized zebra fish embryos assessed as survival rate at 300 nM incubated for 120 hrs post fertilization by microscopic method relative to untreated control (reference value: 100%); design: species or system Danio rerio; conditions: zebrafish
# [4] = Toxicity in fertilized zebra fish embryos assessed as survival rate at 1000 nM incubated for 120 hrs post fertilization by microscopic method relative to untreated control (reference value: 100%); design: species or system Danio rerio; conditions: zebrafish
# [5] = Toxicity in fertilized zebra fish embryos assessed as hatching rate at 300 nM incubated for 120 hrs post fertilization by microscopic method relative to untreated control (reference value: 100%); design: species or system Danio rerio; conditions: zebrafish, 0.3 µM
# [6] = Toxicity in fertilized zebra fish embryo assessed as teratogenic effect by measuring malformation of spine curvature and head enlargement at 300 nM after 120 hrs post fertilization by microscopic method relative to control; design: species or system Danio rerio; conditions: zebrafish, 0.3 µM
# [7] = Toxicity in fertilized zebra fish embryos assessed as hatching rate at 1000 nM incubated for 120 hrs post fertilization by microscopic method relative to untreated control (reference value: 100%); design: species or system Danio rerio; conditions: zebrafish, 1 µM
# [8] = Aqueous solubility in pH 7.4 PBS buffer at 1 mM after 6 hrs by HPLC analysis; type: physicochemical
# [9] = Toxicity in fertilized zebra fish embryo assessed as teratogenic effect by measuring malformation of spine curvature and head enlargement at 100 nM after 120 hrs post fertilization by microscopic method relative to control; design: species or system Danio rerio; conditions: zebrafish, 0.1 µM
# [10] = Toxicity in fertilized zebra fish embryo assessed as teratogenic effect by measuring malformation of spine curvature and head enlargement at 1000 nM after 120 hrs post fertilization by microscopic method relative to control; design: species or system Danio rerio; conditions: zebrafish, 1 µM
# [11] = Toxicity in fertilized zebra fish embryo assessed as induction of malformation of spine curvature at 1000 nM after 120 hrs post fertilization by microscopic method relative to control; design: species or system Danio rerio; conditions: zebrafish, 1 µM
# [12] = target: T1, Retinoic acid receptor RXR-alpha (Homo sapiens, UniProt P19793); assay: Agonist activity at human RXRalpha expressed in African green monkey COS1 cells harboring CRBP2-tk-luc reporter incubated for 18 hrs by steady-glo luciferase reporter gene assay; type: cell-based
# T1 sequence (P19793 whole entry): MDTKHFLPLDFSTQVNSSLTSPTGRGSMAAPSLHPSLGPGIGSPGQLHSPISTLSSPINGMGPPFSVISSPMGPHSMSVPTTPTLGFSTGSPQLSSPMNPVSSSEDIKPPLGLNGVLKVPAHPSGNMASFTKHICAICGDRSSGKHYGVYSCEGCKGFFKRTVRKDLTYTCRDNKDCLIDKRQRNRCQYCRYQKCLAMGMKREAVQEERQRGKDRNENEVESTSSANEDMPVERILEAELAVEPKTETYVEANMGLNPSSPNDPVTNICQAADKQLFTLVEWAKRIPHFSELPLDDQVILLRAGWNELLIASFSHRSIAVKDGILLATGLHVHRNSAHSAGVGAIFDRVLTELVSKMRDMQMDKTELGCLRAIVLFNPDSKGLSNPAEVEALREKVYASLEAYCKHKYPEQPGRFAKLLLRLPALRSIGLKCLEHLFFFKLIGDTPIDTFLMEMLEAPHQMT
# [13] = Toxicity in fertilized zebra fish embryos assessed as survival rate at 287 nM incubated for 120 hrs post fertilization by microscopic method relative to untreated control (reference value: 100%); design: species or system Danio rerio; conditions: zebrafish
# [14] = Toxicity in fertilized zebra fish embryos assessed as hatching rate at 287 nM incubated for 120 hrs post fertilization by microscopic method relative to untreated control (reference value: 100%); design: species or system Danio rerio; conditions: zebrafish, 0.287 µM
smiles,measurement,setting,value
Cc1cc2c(cc1-n1c(C(F)(F)F)nc3cc(C(=O)O)ccc31)C(C)(C)CCC2(C)C,Activity,[1],83%
same,"survival at 120 h, 0.1 µM",[2],100%
same,"survival at 120 h, 0.3 µM",[3],100%
same,"survival at 120 h, 1 µM",[4],100%
same,Activity,[5],92%
same,Activity,[6],0%
same,Activity,[7],100%
same,"solubility at 6 h, 1000 µM",[8],12.8 µM
same,Activity,[9],0%
same,Activity,[10],17%
Cc1cc2c(cc1-n1c(C(F)(F)F)nc3cc(C(=O)O)cnc31)C(C)(C)CCC2(C)C,Activity,[1],92%
same,"survival at 120 h, 0.1 µM",[2],100%
same,"survival at 120 h, 0.3 µM",[3],100%
same,"survival at 120 h, 1 µM",[4],100%
same,Activity,[5],100%
same,Activity,[6],0%
same,Activity,[7],83%
same,"solubility at 6 h, 1000 µM",[8],222 µM
same,Activity,[11],Non-Toxic
same,Activity,[9],0%
same,EC50,[12],670 nM
same,Activity,[10],10%
Cc1cc2c(cc1-n1nnc3cc(C(=O)O)ccc31)C(C)(C)CCC2(C)C,"survival at 120 h, 0.1 µM",[2],100%
same,"survival at 120 h, 0.3 µM",[3],100%
same,"survival at 120 h, 1 µM",[4],100%
same,"solubility at 6 h, 1000 µM",[8],305 µM
Cc1cc2c(cc1-n1nnc3cc(C(=O)O)cnc31)C(C)(C)CCC2(C)C,Activity,[1],100%
same,"survival at 120 h, 0.1 µM",[2],100%
same,"survival at 120 h, 0.3 µM",[3],100%
same,"survival at 120 h, 1 µM",[4],100%
same,Activity,[5],100%
same,Activity,[6],0%
same,Activity,[7],100%
same,"solubility at 6 h, 1000 µM",[8],670 µM
same,Activity,[11],Toxic
same,Activity,[9],0%
same,EC50,[12],275 nM
same,Activity,[10],25%
C=C(c1ccc(C(=O)O)cc1)c1cc2c(cc1C)C(C)(C)CCC2(C)C [BEXAROTENE],"survival at 120 h, 0.287 µM",[13],99%
same,Activity,[1],67 to 100%
same,Activity,[14],99%
same,"survival at 120 h, 0.1 µM",[2],100%
same,"solubility at 6 h, 1000 µM",[8],0.25 µM
same,Activity,[9],100%
